Laboratory results as given in patent US7687609B2, “Galectin-glycosaminoglycan complex and method for controlling galectin activity” (National Institute of Advanced Industrial Science and …, priority 2006, dated 2010).

What was measured:
Galectin-1 = target: T1, Galectin-1 (Homo sapiens, UniProt P09382); assay: FAC affinity test on galectin-immobilized column; assay type: binding; settings: pyridyl-aminated carbohydrate; galectin-1 immobilized 0.8 mg/ml; less than 5 μl = below interaction detection limit
T1 construct: made in house
T1 sequence (P09382 whole entry): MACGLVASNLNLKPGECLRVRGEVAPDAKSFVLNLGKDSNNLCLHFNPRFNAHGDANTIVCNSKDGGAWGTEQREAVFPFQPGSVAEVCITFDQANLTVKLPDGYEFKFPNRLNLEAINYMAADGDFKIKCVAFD
Method: (§1) Various galectin molecules-immobilized columns were prepared by the method described by Nakamura S, Yagi F, Totani K, Ito γ and Hirabayashi J in FEBS J., 272, 2784-2799 (2005), using NHS Sepharose (manufactured by Amersham Bioscience) as the carrier for immobilizing galectin molecules and in accordance with the instructions attached thereto (put in parentheses is immobilization concentration, mg galectin/ml carrier).
(§2) Each galectin molecule was immobilized onto the carrier at the following concentration; galectin-1 (0.8 mg/ml), galectin-3 (0.5 mg/ml), galectin-8N (3.6 mg/ml), galectin-8C (4.0 mg/ml), galectin-9N (3.6 mg/ml), galectin-9C (3.0 mg/ml). The carrier on which each galectin was immobilized was charged into a stainless steel miniature column (2 mm in inner diameter, 10 mm in length; manufactured by Shimadzu Corp.).
(§3) A high performance liquid chromatography (HPLC) system was equipped with a galectin molecule-immobilized column, and the test was carried out by the method described in Nakamura S, Yagi F, Totani K, Ito γ and Hirabayashi J in FEBS J., 272, 2784-2799 (2005).
(§4) As the negative control sample, pyridyl-aminated N-acetylglucosamine (PA-GlcNAc, manufactured by Takara Bio, pyridyl-aminated glycosaminoglycan-oligosaccharide sample control) or pyridyl-aminated pullulan (prepared by carrying out pyridylamination of standard pullulan manufactured by Shodex, pyridyl-aminated glycosaminoglycan polysaccharide sample control) was used, and a V−V0 value was calculated from their eluate volume (V0 value) measured by fluorescence detection and the eluate volume (V value) of the sample, namely pyridyl-aminated glycosaminoglycan carbohydrate, and this was used as the index of interaction strength (Protein, Nucleic Acid and Enzyme, 48(8), 1206-1212 (2003)).
(§5) V−V0 values of pyridyl-aminated glycosaminoglycans (HA, CH, DN, NAH, CSA, CSB, CSC, CSD, CSE, KS-I and KS-II) were calculated based on PA-GlcNAc, and V−V0 values of pyridyl-aminated glycosaminoglycan-oligosaccharides (G2K1, G1L1, G4L4, L2L2, L2L4, L4L4, SL2L4 and CH3 to CH12) based on pyridyl-aminated pullulan, respectively.
(§6) In this connection, when the calculated value of the V−V0 value was less than 5 μl, it was regarded as less than the interaction detection limit in this example.

Galectin-3 [1] = target: T2, Galectin-3 (Homo sapiens, UniProt P17931); assay: FAC affinity test on galectin-immobilized column; assay type: binding; settings: pyridyl-aminated carbohydrate; galectin-3 immobilized 0.5 mg/ml; less than 5 μl = below interaction detection limit
T2 construct: made in house
T2 sequence (P17931 whole entry): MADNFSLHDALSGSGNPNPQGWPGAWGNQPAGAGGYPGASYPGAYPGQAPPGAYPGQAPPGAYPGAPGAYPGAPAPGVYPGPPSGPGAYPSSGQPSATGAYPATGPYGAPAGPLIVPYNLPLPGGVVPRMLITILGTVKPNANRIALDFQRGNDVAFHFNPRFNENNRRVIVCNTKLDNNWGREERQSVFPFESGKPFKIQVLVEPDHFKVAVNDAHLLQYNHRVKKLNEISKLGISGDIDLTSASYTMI
Method: as §1, §2, §3, §4, §5, §6

Galectin-9C = target: T3, Galectin-9C (Homo sapiens, UniProt O00182); assay: FAC affinity test on galectin-immobilized column; assay type: binding; settings: pyridyl-aminated carbohydrate; galectin-9C immobilized 3.0 mg/ml; less than 5 μl = below interaction detection limit
T3 construct: N and C respectively represent N-terminal side carbohydrate-recognition domain and C-terminal side carbohydrate-recognition domain; made in house
T3 sequence (O00182 227-355 limits assumed): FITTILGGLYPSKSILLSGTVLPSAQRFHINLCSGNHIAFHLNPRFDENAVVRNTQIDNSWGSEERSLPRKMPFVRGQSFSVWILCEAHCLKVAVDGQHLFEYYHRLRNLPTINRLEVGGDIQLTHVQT
Method: as §1, §2, §3, §4, §5, §6

Galectin-9N [2] = target: T4, Galectin-9N (Homo sapiens, UniProt O00182); assay: FAC affinity test on galectin-immobilized column; assay type: binding; settings: pyridyl-aminated carbohydrate; galectin-9N immobilized 3.6 mg/ml; less than 5 μl = below interaction detection limit
T4 construct: N and C respectively represent N-terminal side carbohydrate-recognition domain and C-terminal side carbohydrate-recognition domain; made in house
T4 sequence (O00182 17-148 limits assumed): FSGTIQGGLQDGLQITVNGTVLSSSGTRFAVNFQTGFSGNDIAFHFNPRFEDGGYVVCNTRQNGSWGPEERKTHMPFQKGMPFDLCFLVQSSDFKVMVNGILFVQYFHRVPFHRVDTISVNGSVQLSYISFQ
Method: as §1, §2, §3, §4, §5, §6

Galectin-3 [3] = target: T2, Galectin-3; assay: FAC competitive inhibition test, binding of galectin-3 with LNnT; settings: 5.0 nM PA-LNnT; for V2 − V0: V1 − V0 30.6 μl
Method: (§7) A model test on a competitive inhibition was carried out by FAC, in which binding of a galectin molecule with a carbohydrate which binds to the galectin molecule is inhibited by a glycosaminoglycan molecule. The FAC was carried out in accordance with the above-described example (1). In addition, as a model carbohydrate which is known to be bound to the galectin molecule, a pyridylamination product of lacto-N-neotetraose (LNnT hereinafter, Gal β1-4 GlcNAc β1-3 Gal β1-4 Glc, purchased from Seikagaku Corporation) was used.
(§8) In the test, 5.0 nM in final concentration of PA-LNnT sample solution was mixed with various concentration of glycosaminoglycan molecule (not pyridyl-aminated, namely an inhibitory carbohydrate) to measure the eluate volume (V2 value) by FAC, and the inhibition ratio (%) was calculated as follows from the eluate volume (V1 value) before the mixing and the eluate volume (V0 value) of a negative control sample. Inhibition ratio (%)=100×(V1−V2)/(V1−V0) Formula 1
(§9) In this connection, the unlabeled (not pyridyl-aminated) CH4, CH6, CH10, HA4 and CSA4 were respectively prepared at Seikagaku Corporation in accordance with a conventionally known method.

Galectin-9N [4] = target: T4, Galectin-9N; assay: FAC competitive inhibition test, binding of galectin-9N with LNnT; settings: for Inhibition ratio / V2 − V0: 5.0 nM PA-LNnT; for V2 − V0: V1 − V0 20.3 μl
Method: as §7, §8, §9

Galectin-8C = target: T5, Galectin-8C (Homo sapiens, UniProt O00214); assay: FAC affinity test on galectin-immobilized column; assay type: binding; settings: pyridyl-aminated carbohydrate; galectin-8C immobilized 4.0 mg/ml; less than 5 μl = below interaction detection limit
T5 construct: N and C respectively represent N-terminal side carbohydrate-recognition domain and C-terminal side carbohydrate-recognition domain; made in house
T5 sequence (O00214 187-317 limits assumed): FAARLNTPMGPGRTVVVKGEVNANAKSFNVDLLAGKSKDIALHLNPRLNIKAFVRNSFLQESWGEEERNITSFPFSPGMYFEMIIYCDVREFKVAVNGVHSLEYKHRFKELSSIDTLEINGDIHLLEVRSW
Method: as §1, §2, §3, §4, §5, §6

Galectin-8N = target: T6, Galectin-8N (Homo sapiens, UniProt O00214); assay: FAC affinity test on galectin-immobilized column; assay type: binding; settings: pyridyl-aminated carbohydrate; galectin-8N immobilized 3.6 mg/ml; less than 5 μl = below interaction detection limit
T6 construct: N and C respectively represent N-terminal side carbohydrate-recognition domain and C-terminal side carbohydrate-recognition domain; made in house
T6 sequence (O00214 19-152 limits assumed): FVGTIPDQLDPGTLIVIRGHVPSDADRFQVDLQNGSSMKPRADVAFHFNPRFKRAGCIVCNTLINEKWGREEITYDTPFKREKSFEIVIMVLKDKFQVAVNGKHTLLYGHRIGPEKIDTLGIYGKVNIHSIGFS
Method: as §1, §2, §3, §4, §5, §6

[5] = system: tested galectin molecules (galectin-1, 3, 8N, 8C, 9N and 9C); assay: FAC affinity test, statements on the whole panel of tested galectins; assay type: binding; settings: Table 3, whole galectin panel
Description: Using FAC, the present inventors have conducted a comprehensive analysis of the interactions between various galectin molecules (galectin-1, 3, 8N, 8C, 9N and 9C; N and C respectively represent N-terminal side carbohydrate-recognition domain and C-terminal side carbohydrate-recognition domain)-immobilized columns and various fluorescence-labeled glycosaminoglycan molecules. As a result, novel affinity was found by the combination of specific galectin molecules and glycosaminoglycan molecules to thereby accomplish the present invention.
as §3, §4, §6

[6] = final conc. 10 μM unlabeled inhibitor
[7] = final conc. 50 μM unlabeled inhibitor
[8] = final conc. 250 μM unlabeled inhibitor
[9] = final conc. 1 μM unlabeled inhibitor
[10] = final conc. 5 μM unlabeled inhibitor

| Compound | V − V0 Value (Galectin-1) [µL] | V − V0 Value (Galectin-3 [1]) [µL] | V − V0 Value (Galectin-9C) [µL] | V − V0 Value (Galectin-9N [2]) [µL] | Inhibition ratio (Galectin-3 [3]; [6]) [%] | V2 − V0 (Galectin-3 [3]; [6]) [µL] | V − V0 Value (Galectin-8C) [µL] | V − V0 Value (Galectin-8N) [µL] | binding to the tested galectin molecules (in words) [5] | further results |
| --- | --- | --- | --- | --- | --- | --- | --- | --- | --- | --- |
| CC(=O)N[C@H]1[C@H](O[C@H]2[C@H](O)[C@@H](O)[C@H](O[C@H]3[C@@H](O)[C@@H](CO)O[C@@H](O[C@H]4[C@H](O)[C@@H](O)[C@H](O[C@H]5[C@@H](O)[C@@H](CO)O[C@@H](O[C@H]6[C@H](O)[C@@H](O)[C@H](O[C@H]7[C@@H](O)[C@@H](CO)O[C@@H](O[C@H]8[C@H](O)[C@@H](O)[C@H](O[C@H]9[C@@H](O)[C@@H](CO)OC(O)[C@@H]9NC(C)=O)O[C@@H]8C(=O)O)[C@@H]7NC(C)=O)O[C@@H]6C(=O)O)[C@@H]5NC(C)=O)O[C@@H]4C(=O)O)[C@@H]3NC(C)=O)O[C@@H]2C(=O)O)O[C@H](CO)[C@H](O)[C@@H]1O[C@@H]1O[C@H](C(=O)O)[C@@H](O)[C@H](O)[C@H]1O (stereo partly drawn) [CH10, GlcA β1-3 (GalNAc β1-4 GlcA β1-3)4 GalNAc] | <5.0 | 11.8 ± 3.3 | <5.0 | 171.5 | 38.2 | 18.9 | – | – | – | – |
| CC(=O)N[C@H]1[C@H](O[C@H]2[C@H](O)[C@@H](O)[C@H](O[C@H]3[C@@H](O)[C@@H](CO)O[C@@H](O[C@H]4[C@H](O)[C@@H](O)[C@H](O[C@H]5[C@@H](O)[C@@H](CO)OC(O)[C@@H]5NC(C)=O)O[C@@H]4C(=O)O)[C@@H]3NC(C)=O)O[C@@H]2C(=O)O)O[C@H](CO)[C@H](O)[C@@H]1O[C@@H]1O[C@H](C(=O)O)[C@@H](O)[C@H](O)[C@H]1O (stereo partly drawn) [CH6, GlcA β1-3 (GalNAc β1-4 GlcA β1-3)2 GalNAc] | <5.0 | 5.8 ± 1.4 | <5.0 | 33.3 ± 3.0 | 5.2 | 29.0 | – | – | – | – |
| CC(=O)N[C@H]1[C@H](O[C@H]2[C@H](O)[C@@H](O)[C@H](O[C@H]3[C@@H](O)[C@@H](CO)OC(O)[C@@H]3NC(C)=O)O[C@@H]2C(=O)O)O[C@H](CO)[C@H](O)[C@@H]1O[C@@H]1O[C@H](C(=O)O)[C@@H](O)[C@H](O)[C@H]1O (stereo partly drawn) [CH4, GlcA β1-3 GalNAc β1-4 GlcA β1-3 GalNAc] | <5.0 | <5.0 | – | 45.3 ± 4.8 | 12.7 | 26.7 | – | – | – | Inhibition ratio (Galectin-3 [3]; [7]): 32.0%; V2 − V0 (Galectin-3 [3]; [7]): 20.8 µL; Inhibition ratio (Galectin-3 [3]; [8]): 48.0%; V2 − V0 (Galectin-3 [3]; [8]): 15.9 µL; inhibition of binding of galectin-9N with LNnT (in words) (Galectin-9N [4]; Table 5): inhibited by CH4 concentration-dependently; Inhibition ratio (Galectin-9N [4]; [9]): 16.7%; V2 − V0 (Galectin-9N [4]; [9]): 16.9 µL; Inhibition ratio (Galectin-9N [4]; [10]): 26.1%; V2 − V0 (Galectin-9N [4]; [10]): 15.0 µL; Inhibition ratio (Galectin-9N [4]; [6]): 32.5%; V2 − V0 (Galectin-9N [4]; [6]): 13.7 µL; Inhibition ratio (Galectin-9N [4]; [7]): 71.4%; V2 − V0 (Galectin-9N [4]; [7]): 5.8 µL |
| chondroitin sulfate C [CSC, reference compound] | <5.0 | <5.0 | <5.0 | <5.0 | – | – | <5.0 | <5.0 | did not bind | – |
| chondroitin sulfate A [CSA, reference compound] | <5.0 | <5.0 | <5.0 | <5.0 | – | – | <5.0 | <5.0 | did not bind | – |
